Laboratory results: ChEMBL document CHEMBL1201862, “PubChem BioAssay data set” (2004)
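96-well plates; 48 h exposure; 5 concentrations. Endpoints by linear interpolation between flanking doses. Not reached: highest tested concentration assigned. Here, GI50 denotes the concentration required for 50% inhibition of growth.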 Activity calls are given as the source filed them. Cut-off read from the data, not from the text of the source: active = GI50 up to about 1.1 µM and inactive = higher.

Experiments:
Experiment in all cases: growth of human tumour cells (NCI), 48 h
[1] = tested on: SK-MEL-5
[2] = tested on: HT-29
[3] = tested on: HL-60
[4] = tested on: HCC 2998
[5] = tested on: SF-268
[6] = tested on: MDA-N
[7] = tested on: U-251
[8] = tested on: NCI/ADR-RES
[9] = tested on: Malme-3M
[10] = tested on: A549
[11] = tested on: MOLT-4
[12] = tested on: EKVX
[13] = tested on: DU-145
[14] = tested on: NCI-H226
[15] = tested on: KM12
[16] = tested on: 786-0
[17] = tested on: OVCAR-8
[18] = tested on: CCRF-CEM
[19] = tested on: RPMI-8226
[20] = tested on: ACHN

Structure (SMILES) | GI50 [1] | GI50 [2] | GI50 [3] | GI50 [4] | GI50 [5] | GI50 [6] | GI50 [7] | GI50 [8] | GI50 [9] | GI50 [10] | GI50 [11] | GI50 [12] | GI50 [13] | GI50 [14] | GI50 [15] | GI50 [16] | GI50 [17] | GI50 [18] | GI50 [19] | GI50 [20]
C=C1CC(C)(COc2ccc3c(C)cc(=O)oc3c2)OC1=O (stereo not given) | 1.31 µM (inactive) | 1.03 µM (active) | 0.232 µM (active) | 3.5 µM (inactive) | 4.41 µM (inactive) | 0.695 µM (active) | 10.9 µM (inactive) | 1.95 µM (inactive) | 1.29 µM (inactive) | 8.79 µM (inactive) | 1.47 µM (inactive) | 4.7 µM (inactive) | 2.36 µM (inactive) | 8.69 µM (inactive) | 3.66 µM (inactive) | 1.48 µM (inactive) | 3.17 µM (inactive) | 0.229 µM (active) | 0.414 µM (active) | 2.08 µM (inactive)
Cc1nc2cc(F)c(F)cc2[nH]c1=O | > 100 µM (inactive) | > 100 µM (inactive) | > 100 µM (inactive) | > 100 µM (inactive) | > 100 µM (inactive) | > 100 µM (inactive) | > 100 µM (inactive) | > 100 µM (inactive) | > 100 µM (inactive) | > 100 µM (inactive) | > 100 µM (inactive) | 67.1 µM (inactive) | > 100 µM (inactive) | > 100 µM (inactive) | > 100 µM (inactive) | > 100 µM (inactive) | > 100 µM (inactive) | > 100 µM (inactive) | > 100 µM (inactive) | > 100 µM (inactive)
COc1ccc(NCC(=O)Nn2c(-c3ccccc3)nc3ccccc3c2=O)cc1 | 14.8 µM (inactive) | 32.4 µM (inactive) | 42.3 µM (inactive) | 77.6 µM (inactive) | 36.2 µM (inactive) | 63.4 µM (inactive) | 28.7 µM (inactive) | 25.2 µM (inactive) | 30 µM (inactive) | 53.7 µM (inactive) | 18.4 µM (inactive) | 69.2 µM (inactive) | > 100 µM (inactive) | > 100 µM (inactive) | 70.8 µM (inactive) | 25.6 µM (inactive) | 31.9 µM (inactive) | 24.2 µM (inactive) | 24.2 µM (inactive) | 38.4 µM (inactive)
COC12C(COC(=O)NCCO)C3=C(C(=O)C(C)=C(N)C3=O)N1CC1NC12 (stereo not given) | 14.2 µM (inactive) | 29.2 µM (inactive) | 58.9 µM (inactive) | 34.8 µM (inactive) | 11.6 µM (inactive) | 86.1 µM (inactive) | 4.05 µM (inactive) | > 264 µM (inactive) | 21.1 µM (inactive) | 7.66 µM (inactive) | 35.2 µM (inactive) | > 264 µM (inactive) | 39.4 µM (inactive) | 16.9 µM (inactive) | 69.3 µM (inactive) | 20.9 µM (inactive) | 38.3 µM (inactive) | 12.1 µM (inactive) | 74.8 µM (inactive) | 6.59 µM (inactive)
O=C(O)c1cccc(CC(Br)C(=O)O)c1 (stereo not given) | > 100 µM (inactive) | > 100 µM (inactive) | > 100 µM (inactive) | > 100 µM (inactive) | > 100 µM (inactive) | > 100 µM (inactive) | > 100 µM (inactive) | > 100 µM (inactive) | > 100 µM (inactive) | > 100 µM (inactive) | > 100 µM (inactive) | > 100 µM (inactive) | > 100 µM (inactive) | > 100 µM (inactive) | > 100 µM (inactive) | > 100 µM (inactive) | > 100 µM (inactive) | > 100 µM (inactive) | > 100 µM (inactive) | > 100 µM (inactive)
